The values below come from patent US20120071536A1, “N-[(2-AZABICYCLO[2.1.1]HEX-1-YL)-ARYL-METHYL]-BENZAMIDE DERIVATIVES, PREPARATION THEREOF, AND THERAPEUTIC USE THEREOF” (SANOFI, priority 2009, published 2012).

Data set [1] concerns the target T1, native human transporter GlyT1 (Homo sapiens, UniProt P48067).
T1 construct: expressing the native human transporter GlyT1; endogenous in cells; host or cells: SK-N-MC cells (human neuroepithelial cells)
T1 sequence (P48067 1-706): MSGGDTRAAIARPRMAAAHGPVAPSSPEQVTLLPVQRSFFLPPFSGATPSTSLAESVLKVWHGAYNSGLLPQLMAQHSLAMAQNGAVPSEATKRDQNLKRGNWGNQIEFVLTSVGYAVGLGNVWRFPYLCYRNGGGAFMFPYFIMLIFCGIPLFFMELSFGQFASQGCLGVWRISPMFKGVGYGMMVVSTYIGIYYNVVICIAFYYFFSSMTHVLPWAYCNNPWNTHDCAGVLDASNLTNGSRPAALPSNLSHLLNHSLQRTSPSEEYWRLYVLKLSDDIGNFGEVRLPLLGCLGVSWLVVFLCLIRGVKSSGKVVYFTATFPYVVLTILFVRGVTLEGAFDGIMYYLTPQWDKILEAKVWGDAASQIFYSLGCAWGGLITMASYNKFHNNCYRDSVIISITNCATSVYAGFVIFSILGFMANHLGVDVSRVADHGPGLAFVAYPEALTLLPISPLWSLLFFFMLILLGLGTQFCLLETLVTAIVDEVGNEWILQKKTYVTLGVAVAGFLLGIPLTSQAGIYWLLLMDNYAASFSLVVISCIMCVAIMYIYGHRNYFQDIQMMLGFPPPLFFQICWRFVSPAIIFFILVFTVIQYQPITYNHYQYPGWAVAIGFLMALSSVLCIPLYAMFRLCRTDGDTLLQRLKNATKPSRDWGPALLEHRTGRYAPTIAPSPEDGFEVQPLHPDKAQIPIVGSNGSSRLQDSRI
Kind of data set: Uptake of [14C]glycine in SK-N-MC cells expressing the native human transporter GlyT1. It is filed as cell-based. The following applies: 10 μM [14C]glycine, 10 min at 37° C., pH 7.4, read-out: IC50 (concentration of the compound which reduces by 50% the specific uptake of glycine). The procedure: Study of Glycine Transportation in SK-N-MC Cells Expressing the Native Human Transporter GlyT1.
The uptake of [^14C]glycine is studied in SK-N-MC cells (human neuroepithelial cells) expressing the native human transporter GlyT1 by measuring the radioactivity incorporated in the presence or absence of the test compound. The cells are cultured as a monolayer for 48 hours in plates pretreated with 0.02% fibronectin. On the day of the experiment, the culture medium is removed and the cells are washed with Krebs-HEPES (4-(2-hydroxyethyl)piperazine-1-ethanesulphonic acid) buffer at pH 7.4. After preincubation for 10 minutes at 37° C. in the presence either of buffer (control batch) or of test compound at various concentrations or of 10 mM of glycine (determination of the non-specific uptake), 10 μM of [^14C]glycine (specific activity 112 mCi/mmol) are subsequently added. Incubation is continued for 10 min at 37° C. and the reaction is halted by washing twice with pH 7.4 Krebs-HEPES buffer. The radioactivity incorporated by the cells is then estimated after adding 100 μl of liquid scintillant and stirring for 1 h. Counting is carried out on a Microbeta Tri-Lux™ counter. The effectiveness of the compound is determined by the IC50, the concentration of the compound which reduces by 50% the specific uptake of glycine, defined by the difference in radioactivity incorporated by the control batch and the batch which received the 10 mM glycine.

Counter-ions that a name gives are not always drawn.

Consider `Nc1ccc(C(NC(=O)c2cccc(C(F)(F)F)c2Cl)C23CC(CN2)C3)cc1` (racemic) [Compound 1, N-[(4-Aminophenyl)(2-azabicyclo[2.1.1]hex-1-yl)methyl]-2-chloro-3-(trifluoromethyl)-benzamide], for which, in data set [1], the IC50 is 1.1 µM.

For `O=C(NC(c1ccccc1)C12CC(CN1)C2)c1cccc(C(F)(F)F)c1Cl` (racemic) [Compound 5, N-[(2-azabicyclo[2.1.1]hex-1-yl)(phenyl)methyl]-2-chloro-3-(trifluoromethyl)benzamide hydrochloride (1:1)], the IC50 in data set [1] turned out to be 0.026 µM.

In the case of `CSc1ccc(Cl)c(C(=O)NC(c2ccccc2)C23CC(CN2)C3)c1` (racemic) [Compound 11, N-[(2-Azabicyclo[2.1.1]hex-1-yl)(phenyl)methyl]-2-chloro-5-(methylsulphanyl)-benzamide], the melting point (as a rule, the temperature of the solid-liquid transition) lay within 115 to 117 °C. For the same molecule, in data set [1], the IC50 was found to be 0.16 µM.

Molecule `CN1CC2CC1(C(NC(=O)c1cccc(C(F)(F)F)c1Cl)c1ccccc1)C2.Cl` (racemic) [Compound 18, 2-Chloro-N-[(2-methyl-2-azabicyclo[2.1.1]hex-1-yl)(phenyl)methyl]-3-(trifluoromethyl)benzamide hydrochloride (1:1)] showed a melting point of 168.5 to 169.5 °C. The IC50 in data set [1] worked out at 0.021 µM.

Molecule `C=CCN1CC2CC1(C(NC(=O)c1cc(Br)c(Cl)cc1N)c1ccccc1)C2` (racemic) [Compound 20, N-[(2-Allyl-2-azabicyclo[2.1.1]hex-1-yl)(phenyl)methyl]-2-amino-5-bromo-4-chloro-benzamide] displayed a melting point of 66 to 67 °C.

On to `CC(C)(O)CN1CC2CC1(C(NC(=O)c1c(Cl)ccc(C(F)(F)F)c1Cl)c1ccccc1)C2` (racemic) [Compound 22], for which, in data set [1], the IC50 was determined as 0.11 µM.

Turning to `O=C(NC(c1ccccc1)C12CC(CN1CC(F)(F)F)C2)c1c(Cl)ccc(C(F)(F)F)c1Cl` (racemic) [Compound 23, 2,6-Dichloro-N-{(phenyl)[2-(2,2,2-trifluoroethyl)-2-azabicyclo[2.1.1]hex-1-yl]methyl}-3-(trifluoromethyl)benzamide], the melting point is 82 to 83 °C. In data set [1], the IC50 amounted to 0.3 µM.

`CCc1ccccc1C(=O)NC(c1ccccc1)C12CC(CN1CC)C2` (racemic) [Compound 31, 2-Ethyl-N-[(2-ethyl-2-azabicyclo[2.1.1]hex-1-yl)(phenyl)methyl]benzamide]: in data set [1], the IC50 is 0.0016 µM.

In turn, `O=C(NC(c1ccccc1)C12CC(CN1)C2)c1cccc(C(F)(F)F)c1Cl` (single isomer, unassigned; (+)) (as salt: HCl) [Compound 14, (+)-N-[(2-Azabicyclo[2.1.1]hex-1-yl)(phenyl)methyl]-2-chloro-3-(trifluoromethyl)-benzamide] registered a melting point of 160 to 170 °C.

On to `CCN1CC2CC1(C(NC(=O)c1cccc(C(F)(F)F)c1Cl)c1ccccc1)C2` (single isomer, unassigned; (+)) (as salt: HCl) [Compound 26, (+)-2-Chloro-N-[(2-ethyl-2-azabicyclo[2.1.1]hex-1-yl)(phenyl)methyl]-3-(trifluoromethyl)benzamide], for which the melting point is 257 to 259 °C.

As for `O=C(NC(c1ccccc1)C12CC(CN1)C2)c1cccc(C(F)(F)F)c1Cl` (single isomer, unassigned; (-)) (as salt: HCl) [Compound 13, (−)N-[(2-Azabicyclo[2.1.1]hex-1-yl)(phenyl)methyl]-2-chloro-3-(trifluoromethyl)-benzamide], the melting point was in the range of 140 to 150 °C.
